The values below come from patent US20100137313A1 (ASTRAZENECA AB, priority 2008, published 2010).

In this assay the target is S. pneumoniae Topoisomerase IV ATPase (ParE) (Streptococcus pneumoniae serotype 4, UniProt Q59961). Description: S. pneumoniae Topoisomerase IV ATPase inhibition. To be noted: values marked * are an average of two or more data points, read-out: % Inh (13 μM) of S. pneumoniae Topoisomerase IV ATPase. The format is biochemical. In a few lines: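 Malachite green/ammonium molybdate phosphate detection, A650. 1.25 nM ParE, 160 μM ATP, sheared salmon sperm DNA 5 μg/ml, 20 mM Tris pH 8.0, 8.0 mM MgCl2. Controls: 2% DMSO = 0%, 20 μM EDTA = 100% inhibition; IC50 over 10 concentrations.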
Chain of S. pneumoniae Topoisomerase IV ATPase (ParE) (Q59961 whole entry): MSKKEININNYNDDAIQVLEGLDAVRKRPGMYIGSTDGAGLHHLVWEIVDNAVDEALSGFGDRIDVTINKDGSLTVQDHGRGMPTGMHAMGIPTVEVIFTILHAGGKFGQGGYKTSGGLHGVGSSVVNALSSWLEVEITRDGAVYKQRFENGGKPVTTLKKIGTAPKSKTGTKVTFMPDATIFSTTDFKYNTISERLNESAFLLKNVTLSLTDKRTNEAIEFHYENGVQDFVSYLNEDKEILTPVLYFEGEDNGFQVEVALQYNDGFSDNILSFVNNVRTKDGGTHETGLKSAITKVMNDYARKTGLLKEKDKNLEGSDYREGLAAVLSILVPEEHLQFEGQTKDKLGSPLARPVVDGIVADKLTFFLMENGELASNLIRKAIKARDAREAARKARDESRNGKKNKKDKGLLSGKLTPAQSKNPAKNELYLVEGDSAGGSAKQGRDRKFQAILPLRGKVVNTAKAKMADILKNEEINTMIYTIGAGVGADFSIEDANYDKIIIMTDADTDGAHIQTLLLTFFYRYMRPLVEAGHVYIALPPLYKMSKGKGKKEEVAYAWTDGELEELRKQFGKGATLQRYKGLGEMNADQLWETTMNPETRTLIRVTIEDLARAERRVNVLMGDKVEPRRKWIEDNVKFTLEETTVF
For the compound `COc1cc(Nc2ncc(-c3cncnc3)c(NCCCN(C)C)n2)cc(OC)c1` [Example 344, N^2-(3,5-dimethoxyphenyl)-N^4-(3-(dimethylamino)propyl)-5,5′-bi pyrimidin-2,4-diamine], the inhibition at 13 µM came out at 82%.
The result for `Cc1cc(C)cc(Nc2ncc(-c3cncc(C(=O)O)c3)c(-n3ccc(C(F)(F)F)n3)n2)c1` [Example 637, 5-{2-[(3,5-dimethylphenyl)amino]-4-[3-(trifluoromethyl)-1H-pyrazol-1-yl]pyrimidin-5-yl}pyridine-3-carboxylic acid] reads 100%; that for `Cc1cc(C(F)(F)F)nn1-c1nc(Nc2ccc(F)c(Cl)c2)ncc1-c1cncc(C(=O)NCCN2CCN(C)CC2)c1` [Example 928, 5-(2-(3-chloro-4-fluorophenylamino)-4-(5-methyl-3-(trifluoromethyl)-1H-pyrazol-1-yl)pyrimidin-5-yl)-N-(2-(4-methylpiperazin-1-yl)ethyl)nicotinamide], 85%.
For the compound `O=C(O)/C=C/c1cccc(-c2cnc(Nc3ccc(F)c(Cl)c3)nc2NCCCc2nc3ccccc3[nH]2)c1` [Example 289, (E)-3-(3-(4-(3-(1H-benzo[d]imidazol-2-yl)propylamino)-2-(3-chloro-4-fluorophenylamino)-pyrimidin-5-yl)phenyl)acrylic acid], the inhibition at 13 µM came out at 88.2%.
Turning to `CN(C)CCCNc1nc(Nc2ccc(F)c(Cl)c2)ncc1-c1cc2ccccc2o1` [Example 9, 5-(benzofuran-2-yl)-N^2-(3-chloro-4-fluorophenyl)-N^4-(3-(dimethylamino)propyl)pyrimidine-2,4-diamine], the inhibition at 13 µM was 60%.
Take `CN(C)CCCNc1nc(Nc2cc(Cl)cc(Cl)c2)ncc1-c1cccc(/C=C/C(=O)O)c1` [Example 340, (E)-3-(3-(2-(3,5-dichlorophenylamino)-4-(3-(dimethylamino)propylamino)pyrimidin-5-yl)phenyl)acrylic acid]: the inhibition at 13 µM came to 83.3%.
Turning to `COc1cc(Nc2ncc(-c3cnc(OC)c(C(=O)NS(C)(=O)=O)c3)c(-n3ccc(C4CC4)n3)n2)cc(OC)c1` [Example 1152, 5-(4-(3-cyclopropyl-1H-pyrazol-1-yl)-2-(3,5-dimethoxyphenylamino)pyrimidin-5-yl)-2-methoxy-N-(methylsulfonyl)nicotinamide], the inhibition at 13 µM is 100%.
Regarding `CCOC(=O)c1cncc(-c2cnc(Nc3ccc(F)c(Cl)c3)nc2N2CCCC2)c1` [Example 147, ethyl 5-(2-(3-chloro-4-fluorophenylamino)-4-(pyrrolidin-1-yl)pyrimidin-5-yl)nicotinate], the inhibition at 13 µM amounted to 65.4%.
On to `O=C(O)c1coc2ccc(-c3cnc(Nc4ccc(F)c(Cl)c4)nc3N3CCOCC3)cc2c1=O` [Example 459, 6-(2-(3-chloro-4-fluorophenylamino)-4-morpholinopyrimidin-5-yl)-4-oxo-4H-chromene-3-carboxylic acid], for which the inhibition at 13 µM amounted to 100%.
With `CCN(CC)S(=O)(=O)c1cncc(-c2cnc(Nc3ccc(F)c(Cl)c3)nc2-n2nc(C(F)(F)F)cc2C)c1` [Example 1034], the inhibition at 13 µM was found to be 96%.
As to `O[C@H]1CC[C@H](Nc2nc(Nc3ccc(F)c(Cl)c3)ncc2-c2cncnc2)CC1` [Example 68, trans-4-[[2-[(3-chloro-4-fluorophenyl)amino]-5-pyrimidin-5-ylpyrimidin-4-yl]amino]cyclohexan-1-ol], the inhibition at 13 µM is 72.9%.
With `Cc1nccn1-c1nc(Nc2ccc(F)c(Cl)c2)ncc1-c1cncnc1` [Example 85, N-(3-chloro-4-fluorophenyl)-4-(2-methyl-1H-imidazol-1-yl)-5,5′-bipyrimidin-2-amine], the inhibition at 13 µM was determined as 66.8%.
Regarding `CCOC(=O)c1cncc(-c2cnc(Nc3ccc(F)c(Cl)c3)nc2N2C(C)CCC2C)c1` (stereo not drawn) [Example 125, ethyl 5-[2-[(3-chloro-4-fluorophenyl)amino]-4-(2,5-dimethylpyrrolidin-1-yl)pyrimidin-5-yl]pyridine-3-carboxylate], the inhibition at 13 µM was 17.5%.
As to `CCS(=O)(=O)NC(=O)c1cc(-c2cnc(Nc3cc(OC)cc(OC)c3)nc2-n2nc(C(F)(F)F)cc2C)cnc1OC` [Example 815, 5-{2-[(3,5-dimethoxyphenyl)amino]-4-[5-methyl-3-(trifluoromethyl)-1H-pyrazol-1-yl]pyrimidin-5-yl}-N-(ethylsulfonyl)-2-methoxypyridine-3-carboxamide], the inhibition at 13 µM was 100%.
For `CONC(=O)/C=C/c1cccc(-c2cnc(Nc3cc(OC)cc(C(F)(F)F)c3)nc2NCCc2ccncc2)c1` [Example 374, (E)-N-methoxy-3-(3-(2-(3-methoxy-5-(trifluoromethyl)phenylamino)-4-(2-(pyridin-4-yl)ethylamino)pyrimidin-5-yl)phenyl)acrylamide], the inhibition at 13 µM worked out at 81.2%.
Turning to `CONC(=O)c1cncc(-c2cnc(Nc3ccc(F)c(Cl)c3)nc2NCCc2c[nH]cn2)c1` [Example 475, 5-(2-[(3-chloro-4-fluorophenyl)amino]-4-{[2-(1H-imidazol-4-yl)ethyl]amino}pyrimidin-5-yl)-N-methoxypyridine-3-carboxamide], the inhibition at 13 µM was found to be 93%.
With `CCn1cc(-c2cnc(Nc3cc(C)cc(OC)c3)nc2-n2ccc(C(F)(F)F)n2)cc(C(=O)O)c1=O` [Example 1172, 1-ethyl-5-{2-[(3-methoxy-5-methylphenyl)amino]-4-[3-(trifluoromethyl)-1H-pyrazol-1-yl]pyrimidin-5-yl}-2-oxo-1,2-dihydropyridine-3-carboxylic acid], the inhibition at 13 µM amounted to 100%.
Turning to `CCOC(=O)/C=C/c1cccc(-c2cnc(Nc3ccc(F)c(Cl)c3)nc2N2CCOC(CO)C2)c1` (stereo not drawn) [Example 977, (E)-ethyl 3-(3-(2-(3-chloro-4-fluorophenylamino)-4-(2-(hydroxymethyl)morpholino)pyrimidin-5-yl)phenyl)acrylate], the inhibition at 13 µM was found to be 74%.
Consider `CCOC(=O)c1cncc(-c2cnc(Nc3ccc(F)c(Cl)c3)nc2NCc2cnc(C)cn2)c1` [Example 115, ethyl 5-[2-[(3-chloro-4-fluorophenyl)amino]-4-[(5-methylpyrazin-2-yl)methylamino]pyrimidin-5-yl]pyridine-3-carboxylate], for which the inhibition at 13 µM was 28.8%.
On to `O=C(O)C1CCN(c2cccc(-c3cnc(Nc4ccc(F)c(Cl)c4)nc3-n3ccc(C(F)(F)F)n3)c2)C1` (stereo not drawn) [Example 604, 1-(3-{2-[(3-chloro-4-fluorophenyl)amino]-4-[3-(trifluoromethyl)-1H-pyrazol-1-yl]pyrimidin-5-yl}phenyl)pyrrolidine-3-carboxylic acid], for which the inhibition at 13 µM came out at 100%.
`Cc1cnc(CNc2nc(Nc3ccc(F)c(Cl)c3)ncc2-c2cncc(C(=O)O)c2)cn1` [Example 242, 5-[2-[(3-chloro-4-fluorophenyl)amino]-4-[(5-methylpyrazin-2-yl)methylamino]pyrimidin-5-yl]pyridine-3-carboxylic acid]: the inhibition at 13 µM worked out at 61.3%.
`NC(=O)c1cncc(-c2cnc(Nc3ccc(F)c(Cl)c3)nc2NCCc2c[nH]cn2)c1` [Example 472, 5-(2-[(3-chloro-4-fluorophenyl)amino]-4-{[2-(1H-imidazol-4-yl)ethyl]amino}pyrimidin-5-yl)-pyridine-3-carboxamide]: the inhibition at 13 µM was 100%.
As to `O=C(O)c1cncc(-c2cnc(Nc3ccc(F)c(Cl)c3)nc2-n2ccc(-c3ccsc3)n2)c1` [Example 533, 5-{2-[(3-chloro-4-fluorophenyl)amino]-4-[3-(thiophen-3-yl)-1H-pyrazol-1-yl]pyrimidin-5-yl}pyridine-3-carboxylic acid], the inhibition at 13 µM is 100%.
For the compound `CN1CCN(CCn2cc(C(=O)O)c(=O)c3cc(-c4cnc(Nc5ccc(F)c(Cl)c5)nc4-n4ccc(C(F)(F)F)n4)ccc32)CC1` [Example 1071, 6-(2-(3-Chloro-4-fluorophenylamino)-4-(3-(trifluoromethyl)-1H-pyrazol-1-yl)pyrimidin-5-yl)-1-(2-(4-methylpiperazin-1-yl)ethyl)-4-oxo-1,4-dihydroquinoline-3-carboxylic acid], the inhibition at 13 µM was 100%.
`COc1cc(F)cc(Nc2ncc(-c3ccc(C(=O)O)o3)c(-n3ccc(C(F)(F)F)n3)n2)c1` [Example 892, 5-(2-(3-fluoro-5-methoxyphenylamino)-4-(3-(trifluoromethyl)-1H-pyrazol-1-yl)pyrimidin-5-yl)furan-2-carboxylic acid]: the inhibition at 13 µM came out at 100%.
Consider `COc1ccc(-c2cnc(Nc3ccc(F)c(Cl)c3)nc2NCCCN(C)C)cc1` [Example 25, N^2-(3-chloro-4-fluorophenyl)-N^4-[3-(dimethylamino)propyl]-5-(4-methoxyphenyl)-pyrimidine-2,4-diamine], for which the inhibition at 13 µM amounted to 90.5%.
For `O=C(O)c1cncc(-c2cnc(Nc3ccc(F)c(Cl)c3)nc2N2CCC(O)C2)c1` (stereo not drawn) [Example 250, 5[2-[(3-chloro-4-fluorophenyl)amino]-4-(3-hydroxypyrrolidin-1-yl)pyrimidin-5-yl]pyridine-3-carboxylic acid], the inhibition at 13 µM stood at 74.4%.
As to `NC(=O)c1cncc(-c2cnc(Nc3ccc(F)c(Cl)c3)nc2-n2cc(-c3ccncn3)cn2)c1` [Example 543, 5-{2-[(3-chloro-4-fluorophenyl)amino]-4-[4-(pyrimidin-4-yl)-1H-pyrazol-1-yl]pyrimidin-5-yl}pyridine-3-carboxamide], the inhibition at 13 µM worked out at 68%.
In the case of `O=C(O)c1cc(-c2cnc(Nc3ccc(F)c(Cl)c3)nc2-n2ccc(C(F)(F)F)n2)cnc1OCCn1ccnc1` [Example 797, 5-{2-[(3-chloro-4-fluorophenyl)amino]-4-[3-(trifluoromethyl)-1H-pyrazol-1-yl]pyrimidin-5-yl}-2-[2-(1H-imidazol-1-yl)ethoxy]pyridine-3-carboxylic acid], the inhibition at 13 µM was found to be 100%.
Turning to `Fc1ccc(Nc2ncc(-c3cncnc3)c(-n3ccnc3)n2)cc1Cl` [Example 1113, N-(3-chloro-4-fluorophenyl)-4-imidazol-1-yl-5-pyrimidin-5-ylpyrimidin-2-amine], the inhibition at 13 µM was found to be 72%.
